Consider 3 molecules from patent publication US20090017486A1, “METHOD AND TEST KIT FOR THE IDENTIFICATION OF COMPOUNDS SPECIFICALLY MODULATING THE ACTION OF CORTICAL AXO-AXONIC CELLS” (priority 2005, published 2009).

In assay [1] the test system is axo-axonic cells (AACs) and postsynaptic neurons, layer 2/3 somatosensory cortex slices. In words: Multiple whole-cell recordings of synaptic event sequences triggered by AACs in rat cortical slices. It counts as cell-based. On the procedure: (§1) For perforated patch experiments, 3 mg/ml gramicidin (Sigma) was used, dissolved in DMSO and diluted to a final concentration of 9 μg/ml in the low [Cl^−]in pipette solution. […] Membrane potentials were corrected for junction potentials. […] Pressure waves (˜5 μm in diameter) and pipette positions on the soma and along the axon initial segment (30-40 μm from the soma) were imaged and the postsynaptic cell membrane was ruptured by gentle suction pulses to allow biocytin labelling and post-hoc comparison of pipette positions with light microscopic reconstructions. Cells were excluded from analysis if basal dendrites were closer than ˜30 μm to the pressure pipette and/or initial segment.

The subject of a further assay is human axo-axonic cell. As to conditions: gabazine 20 μM.
For assay [2], the system named is pyramidal cell (soma and axon initial segment). Put plainly: Pressure application of GABA to soma and axon initial segment of pyramidal cells. It counts as cell-based, rat. On the procedure:
as §1
To characterize the interaction of axo-axonic cells (AACs) and their postsynaptic neurons, first the reversal potential of GABAergic inputs arriving to the perisomatic region of pyramidal cells was determined, elicited by AACs and basket cells in layers 2/3 of rat somatosensory cortex in vitro (FIG. 1). Paired recordings of presynaptic interneurons and postsynaptic pyramidal cells were performed using the gramicidin perforated patch placed onto the axon hillock between the soma and the initial segment. […] AACs were identified based on light microscopic reconstructions and analysis showing axonal candles or cartridges specific to this cell type [Szentagothai and Arbib (1974); Somogyi (1977)]

The mark [3] stands for this setting: gabazine 20 μM, low [Cl−]in, reversible on washout.

Entries after “also recorded” stand apart in the source; their conditions may differ.

Procedure for human axo-axonic cell: Anaesthesia was induced with intravenous midazolam and fentanyl (0.03 mg/kg and 1-2 μg/kg, respectively). A bolus dose of propofol (1-2 mg/kg) was administered intravenously. To facilitate endotracheal intubation, the patient recieved 0.5 mg/kg rocuronium. After 120 seconds, the trachea was intubated and the patient was ventilated with a mixture of O2—N2O at a ratio of 1:2. Anaesthesia was maintained with sevoflurane at MAC volume of 1.2-1.5. Slices were incubated at room temperature for 1 hour in a solution composed of 130 mM NaCl, 3.5 mM KCl, 1 mM NaH2PO4, 24 mM NaHCO3, 1 mM CaCl2, 3 mM MgSO4 and 10 mM D(+)-glucose, saturated with 95% O2 and 5% CO2. The solution used during recordings differed only in that it contained 3 mM CaCl2 and 1.5 mM MgSO4. Recordings were obtained at ˜35° C. from up to four concomitantly recorded cells visualized in layer 2/3 by infrared differential interference contrast videomicroscopy (Olympus BX60WI microscope, Hamamatsu CCD camera, Luigs & Neumann Infrapatch set-up and two HEKA EPC 10/double patch-clamp amplifiers). Signals were filtered at 8 kHz, digitized at 16 kHz and analyzed with PULSE software (HEKA). Micropipettes (5-7 MW) were filled with three types of solutions. […] Access resistance was continuously monitored throughout perforated patch experiments to check membrane rupture. […]

Consider `COc1ccc(-c2ccc(=N)n(CCCC(=O)O)n2)cc1` [gabazine], for which, in assay [1] (setting [3]), the “effect on disynaptic EPSPs triggered by AACs” value was “blocked” and the “effect on monosynaptic (unitary) IPSPs” value is recorded as “blocked”. Also, the “effect on disynaptic EPSPs and downstream spikes” value in the assay on human axo-axonic cell is “blocked”.

Turning to `NCCCC(=O)O` [GABA, gamma-aminobutyric acid], in assay [2] (GABA 1 mM pressure application to soma, perforated patch, n=7), the “reversal potential of GABA response, soma” value is −71.2±2.7 mV. Also, in assay [2] (GABA to axon initial segment, high [Cl−]in, whole cell mode, n=4 cells), the “trials with spikes triggered below somatic threshold potential” value is recorded as 7±3 % of trials. Moreover, the “threshold potential of spikes triggered by GABA applied to axon initial segment” value in assay [2] (high [Cl−]in intracellular solution, whole cell mode, n=4 cells) is on record as −64.2±2.8 mV. In assay [2] (pressure application of GABA to axon initial segment, high [Cl−]in), the “triggering short latency spikes from hyperpolarized membrane potentials” value was “not effective”.

Turning to `NS(=O)(=O)c1cccc2c1c([N+](=O)[O-])cc1nc(O)c(O)nc12` [NBQX], the “effect on unitary IPSP” value in assay [1] (NBQX 10 μM) is reported as “no effect”. In assay [1] (NBQX 10 μM, recovery upon washout), the “effect on disynaptic EPSPs triggered by AACs” value was “blocked; also recorded: reversibly eliminated”.
